Measured values reported in patent publication US9061003B2, “Therapeutic or preventive agent for diabetes” (NITTA GELATIN INC., priority 2011, dated 2015).
Read-outs that look alike come from different tables or passages of the source. Square brackets hold non-standard residues; d marks the D form. Peptide text beside a SMILES is read from it. Hyp = O=C(O)[C@@H]1C[C@@H](O)CN1

What was measured:
[1] = biological target: T1, DPPIV enzyme; human recombinant (Homo sapiens, UniProt P27487); test: DPPIV inhibitory activity (DPPIV Drug Discovery Kit-AK-499, H-Gly-Pro-AMC substrate); type: biochemical; conditions: for IC50 (concentration at which 50% of DPPIV activity was inhibited): peptides, human recombinant DPPIV; for DPPIV inhibitory activity (in words): discussion of results
T1 construct: purchased BIOMOL E434-9090 (kit AK-499)
T1 sequence (P27487 whole entry): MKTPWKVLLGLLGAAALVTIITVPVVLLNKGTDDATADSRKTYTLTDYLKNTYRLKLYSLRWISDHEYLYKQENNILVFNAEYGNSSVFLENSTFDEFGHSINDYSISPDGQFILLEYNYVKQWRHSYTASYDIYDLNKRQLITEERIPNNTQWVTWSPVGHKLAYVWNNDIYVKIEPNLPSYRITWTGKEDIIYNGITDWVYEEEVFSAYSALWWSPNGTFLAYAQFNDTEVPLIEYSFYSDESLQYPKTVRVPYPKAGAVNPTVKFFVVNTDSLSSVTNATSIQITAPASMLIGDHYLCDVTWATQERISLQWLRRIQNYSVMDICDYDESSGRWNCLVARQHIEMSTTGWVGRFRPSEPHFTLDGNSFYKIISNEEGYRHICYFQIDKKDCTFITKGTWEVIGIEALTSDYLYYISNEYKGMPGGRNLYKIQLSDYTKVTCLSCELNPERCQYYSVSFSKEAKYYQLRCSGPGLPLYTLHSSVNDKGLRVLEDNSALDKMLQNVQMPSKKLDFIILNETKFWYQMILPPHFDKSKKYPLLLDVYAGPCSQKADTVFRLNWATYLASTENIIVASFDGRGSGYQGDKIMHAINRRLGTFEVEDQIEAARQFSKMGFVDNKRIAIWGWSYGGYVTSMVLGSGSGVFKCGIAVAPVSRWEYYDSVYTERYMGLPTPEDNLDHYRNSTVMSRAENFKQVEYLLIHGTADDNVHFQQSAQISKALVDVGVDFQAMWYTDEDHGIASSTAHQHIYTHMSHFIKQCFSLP
Procedure: DPPIV inhibitory activity was determined by using a DPPIV inhibitory activity measuring kit “DPPIV Drug Discovery Kit-AK-499” (manufactured by BIOMOL). […] Inhibitory activity was evaluated by the concentration at which 50% of DPPIV activity was inhibited.

[2] = tested on: Human-derived intestinal tract L cells (NCI-H716 cell); type: cell-based; conditions: for GLP-1 secretion accelerating percentage: peptides, 5 mM sample, 1 hour, NCI-H716 cells, Blank = 100%, n = 4; for GLP-1 secretion accelerating activity (in words): discussion of results
Procedure: Human-derived intestinal tract L cells (NCI-H716 cell: manufactured by ATCC) were inoculated at 5×10^5 cells/mL×200 μL (1×10^5 cells/well) in a RPIM medium containing 10% FBS (manufactured by ATCC) on a Pre-coated poly-L-lysin plate (96 wells plate) and cultured for 2 days. After confirming that the cells were adhered to the plate, the medium was replaced by a test medium (146 mM NaCl, 5 mM KCl, 1.5 mM CaCl2, 1 mM MgSO4, 20 mM HEPES, 5.6 mM glucose, 2 mg/mL BSA) and a sample was added at a final concentration of 5 mM. A culture supernatant after 1 hour was 30-fold diluted with PBS, and tested with GLP-1 ELISA kit (manufactured by Levis) according to the protocol.
Based on GLP-1 secretion in the case not added with the sample (Blank) as 100%, a GLP-1 secretion accelerating percentage in the fraction added with 5 mM sample was calculated.

[3] = Intestinal tract absorptivity (intragastric administration, portal vein perfusate, LC/MS/MS); type: in vivo, Wistar rats; conditions: rat, po
Procedure: Male Wistar rats (170 g) were fasted overnight before subjected to the experiment. As a test sample, 215 nmol/10 mL of each of the peptides was used, and intragastrically administered. As a test method, heart and portal vein of each rat were attached with a cannula to make one-directional perfusion. […] To a perfusion sample solution (5.0 mL) collected from the portal vein was added 0.5 mL of 30% sulfosalicylic acid and stirred vigorously, and left overnight in a refrigerator. This sample was centrifuged at 3000 rpm for 10 minutes, to remove protein. For the supernatant of centrifugation, an amount of hydroxyproline in 0.5 mL was colorimetrically quantified, and an amount of free-type Hyp was obtained. […] After concentrating and drying the resultant in an evaporator, and removing the hydrochloric acid, the solid was dissolved in 5 mL of distilled water, and several drops of a saturated lithium hydroxide solution was added thereto to adjust pH at 5 to 7, and the volume was fixed at 10 mL. […] The value obtained by subtracting the amount of free-type Hyp before hydrolysis from the total Hyp amount after hydrolysis is an amount of peptide-form Hyp. From this amount of peptide-form Hyp, a quantitative value of absorption of each peptide into rat portal vein perfusate in the test sample was first determined. The colorimetric quantification of the amount of hydroxyproline was conducted by a […] and Shill method, and was concretely conducted in the following manner. That is, 2 mL of 2-propanol was added to 2 mL of a sample solution and stirred thoroughly. Then, 0.5 mL of a chloramine T liquid being an oxidizing agent was added to the mixture, and left still for accurately 4 minutes, and then cooled on ice. Then, 5 mL of a p-dimethylaminobenzaldehyde solution was added to the mixture and stirred thoroughly, and then heated in a boiling water bath for accurately 2 minutes. Then, the reaction was immediately cooled on ice, and left still for 1 hour, and then colorimetrically quantified at a wavelength of 575 nm. […] Further, the p-dimethylaminobenzaldehyde solution (Erich solution) was prepared by dissolving 20 g of p-dimethylaminobenzaldehyde powder in 22 mL of concentrated hydrochloric acid under heating in boiling water, and immediately cooling the same in ice water, and adding 122 mL of 2-propanol and dissolving it under stirring. Next, peptides collected in the rat portal vein perfusate, namely the aforementioned intestinally absorbed peptides were identified and quantified by the following HPLC analysis and mass spectrometry (LC/MS/MS). Analysis of the peptide in the perfusate was conducted by reverse-phase HPLC analysis. As a HPLC device, an LCSS-905 system manufactured by JASCO Corporation, consisting of a liquid feeding pump, a degasser, an automatic sampler, a column open, a UV spectrophotometer, a printer, and a system controller was used. As a reverse-phase column, Nova Pak C18 (3.9×150 mm) was used. […] As a HPLC device, U980HPLC (manufactured by JASCO Corporation) attached with an ODS(C18) column (Mightysil RP-18, 2×250 mm, manufactured by Kanto Chemical Co., Ltd.) was used. As a mobile phase solvent, a 0.2% formic acid-containing acetonitrile-water system was used, and the concentration of acetonitrile was increased from 0% to 40% over 40 minutes by a linear gradient, and it was washed with 100% acetonitrile for 10 minutes. […] MS analysis was conducted by a MS/MS system using a Quattro LC mass spectrophotometer (Micromass, Manchester, UK) according to a four-channel Multiple Reaction Monitoring method. To be more specific, the elute from HPLC was monitored by m/z being [M+H]^+ and by m/z of its fragment ion species. At this time, [M+H]^+ m/z was monitored using 302.2>189.4 for LOG; 286.1>189.3 for POG; 187.1>70.3 for PA; 261.1>243.4 for EO, 245.1>132.3 for LO; 245.2>132.1 for IO; 318.1>225.4 for EOG; 276.1>189.4 for SOG; 219.1>132.2 for SO; and 260.1>189.4 for AOG.

ob/ob mice = test: Evaluation of sugar tolerance by glucose loading test; type: in vivo; conditions: 0.85 g/kg orally 30 minutes before oral glucose 2 g/kg
Procedure: Six-weeks old male ob/ob mice (Japan SLC) were allowed to acclimate by feeding with normal diet (MF, Oriental Yeast) for 7 days, and subjected to the experiment. After fasting the same mice overnight (16 hours), each collagen peptide (0.85 g/kg) or casein (0.85 g/kg, manufactured by DMV, Netherlands) was orally administered, and glucose (2 g/kg) was orally administered after 30 minutes, and the effect on the sugar tolerance was examined by a glucose loading test (2 g/kg). After 0, 15, 30, 60 and 120 minutes, the blood sugar level was measured by using a blood glucose measuring apparatus (Glutest ace R, SANWA KAGAKU KENKYUSHO CO., LTD.), and AUC0-120 min was calculated, and evaluated.

[4] = male, Wistar, in vivo, 215 nmol/10 mL
[5] = male Wistar rats, 215 nmol/10 mL intragastrically, portal vein perfusate, read-out: Amount of peptide identified after absorption

IC50 (concentration at which 50% of DPPIV activity was inhibited) [1] [µM]	level at time molar [3, 4] [µM]	DPPIV inhibitory activity (in words) [1]	level at time molar [3, 5] [µM]	Compound	GLP-1 secretion accelerating percentage [2] [%]	GLP-1 secretion accelerating activity (in words) [2]	AUC0-120 min × 1000 (blood sugar level) (ob/ob mice) [min mg/dL]
6000	–	high DPPIV inhibitory activity	66.7 ± 1.3	C[C@H](N)C(=O)N1C[C@H](O)C[C@H]1C(=O)NCC(=O)O [AOG, Ala-Hyp-Gly] (H-Ala-[Hyp]-Gly-OH; N-terminus and C-terminus assumed)	120 ± 5	have GLP-1 secretion accelerating activity	–
1500	156 ± 1.3	high DPPIV inhibitory activity	–	N[C@@H](CCC(=O)O)C(=O)N1C[C@H](O)C[C@H]1C(=O)O [EO, Glu-Hyp] (H-Glu-[Hyp]-OH; N-terminus and C-terminus assumed)	148 ± 66	have GLP-1 secretion accelerating activity	–
2900	110 ± 0.9	high DPPIV inhibitory activity	–	N[C@@H](CCC(=O)O)C(=O)N1C[C@H](O)C[C@H]1C(=O)NCC(=O)O [EOG, Glu-Hyp-Gly] (H-Glu-[Hyp]-Gly-OH; N-terminus and C-terminus assumed)	307 ± 84	have GLP-1 secretion accelerating activity	–
2900	163 ± 1.9	high DPPIV inhibitory activity	–	CC[C@H](C)[C@H](N)C(=O)N1C[C@H](O)C[C@H]1C(=O)O [IO, Ile-Hyp] (H-Ile-[Hyp]-OH; N-terminus and C-terminus assumed)	–	–	–
1700	167.7 ± 0.9	high DPPIV inhibitory activity	–	CC(C)C[C@H](N)C(=O)N1C[C@H](O)C[C@H]1C(=O)O [LO, Leu-Hyp] (H-Leu-[Hyp]-OH; N-terminus and C-terminus assumed)	–	–	–
280	–	high DPPIV inhibitory activity	116.1 ± 1	CC(C)C[C@H](N)C(=O)N1C[C@H](O)C[C@H]1C(=O)NCC(=O)O [LOG, Leu-Hyp-Gly] (H-Leu-[Hyp]-Gly-OH; N-terminus and C-terminus assumed)	326 ± 17	have GLP-1 secretion accelerating activity	–
1000	152.6 ± 1.1	high DPPIV inhibitory activity	–	C[C@H](NC(=O)[C@@H]1CCCN1)C(=O)O [PA, Pro-Ala] (H-Pro-Ala-OH; N-terminus and C-terminus assumed)	133 ± 85	have GLP-1 secretion accelerating activity	–
>10000	105 ± 1.3	–	–	C[C@H](NC(=O)[C@@H]1CCCN1)C(=O)NCC(=O)O [PAG, reference compound] (H-Pro-Ala-Gly-OH; N-terminus and C-terminus assumed)	–	–	–
600	–	high DPPIV inhibitory activity	129 ± 1	O=C(O)CNC(=O)[C@@H]1C[C@@H](O)CN1C(=O)[C@@H]1CCCN1 [POG, Pro-Hyp-Gly] (H-Pro-[Hyp]-Gly-OH; N-terminus and C-terminus assumed)	–	–	–
3600	116.1 ± 0.9	high DPPIV inhibitory activity	–	N[C@@H](CO)C(=O)N1C[C@H](O)C[C@H]1C(=O)O [SO, Ser-Hyp] (H-Ser-[Hyp]-OH; N-terminus and C-terminus assumed)	161 ± 37	have GLP-1 secretion accelerating activity	–
3000	103.2 ± 1	high DPPIV inhibitory activity	–	N[C@@H](CO)C(=O)N1C[C@H](O)C[C@H]1C(=O)NCC(=O)O [SOG, Ser-Hyp-Gly] (H-Ser-[Hyp]-Gly-OH; N-terminus and C-terminus assumed)	–	–	–
–	–	–	–	Casein	–	–	40.0 ± 2.0
–	–	have DPPIV inhibitory activity	–	Hyp-Gly [OG]	152 ± 22	have GLP-1 secretion accelerating activity	–
–	–	have DPPIV inhibitory activity	–	Pro-Gly [PG]	168 ± 15	have GLP-1 secretion accelerating activity	–
–	–	have DPPIV inhibitory activity	–	Pro-Hyp [PO]	154 ± 44	have GLP-1 secretion accelerating activity	–
–	–	have DPPIV inhibitory activity	–	Pro-Pro [PP]	167 ± 53	have GLP-1 secretion accelerating activity	–

Compound	IC50 (concentration at which 50% of DPPIV activity was inhibited) [1] [µM]	level at time molar [3, 4] [µM]	DPPIV inhibitory activity (in words) [1]	level at time molar [3, 5] [µM]	GLP-1 secretion accelerating percentage [2] [%]	GLP-1 secretion accelerating activity (in words) [2]	AUC0-120 min × 1000 (blood sugar level) (ob/ob mice) [min mg/dL]
C[C@H](N)C(=O)N1C[C@H](O)C[C@H]1C(=O)O [AO, Ala-Hyp] (H-Ala-[Hyp]-OH; N-terminus and C-terminus assumed)	>10000	71 ± 0.9	–	–	262 ± 71	–	–
NCC(=O)N1CCC[C@H]1C(=O)N1C[C@H](O)C[C@H]1C(=O)O [GPO, Gly-Pro-Hyp] (H-Gly-Pro-[Hyp]-OH)	>10000	–	–	2.2	278 ± 60	–	–
